Data: patent publication US9777015B2, “Useful thiophene derivatives in the treatment of diabetes” (METABRAIN RESEARCH, priority 2012, dated 2017)
Like-named read-outs stand apart in the source and are kept apart here.

Tests used:
INS-1 cells = experiment: Stimulation test of insulin secretion by INS-1 cells; assay type: cell-based; details: Rattus norvegicus, 1 h incubation, 3.5 mM glucose; for activity at 10 µM: INS1, compound at 10 μM, read-out: INS-1 % of ctrl @ 10 μM; for activity at 50 µM: INS1, compound at 50 μM, read-out: INS-1 % of ctrl @ 50 μM
Protocol: The different compounds were tested on an INS-1 beta-pancreatic line in order to evaluate their capability of potentializing the insulin secretion in response to glucose. Very briefly, the cells are cultivated in a culture medium, RPMI 1640 with 10 mM glucose containing 1 mM of sodium pyruvate, 50 μM of 2-mercaptoethanol, 2 mM of glutamine, 10 mM of HEPES, 100 IU/mL of penicillin, 100 μg/mL of streptomycin and 10% of inactivated fetal calf serum, as described by Asfari et al.. For the insulin secretion test, the INS-1 cells are sown and cultivated in 96-well plates. After 3 days of cultivation at 37° C. in a humid atmosphere (95% air/5% CO2), the medium is removed and the cells are incubated for 16 h in a medium containing 5 mM of glucose and 1% of inactivated fetal calf serum. On the day of the test, the cells are washed with a Krebs buffer (pH 7.4) containing 0.1% of bovine albumin and then pre-incubated for 30 min at 37° C. in this same buffer containing 2.8 mM of glucose. Finally, the cells are again washed with Krebs buffer and then incubated for 1 h in the buffer of the secretion test (Krebs, pH 7.4 containing 0.1% of bovine albumin and 3.5 mM of glucose and molecules to be evaluated). At the end of the test, the cell supernatant is recovered in order to measure therein the secreted insulin, by means of an ELISA kit using a rat anti-insulin antibody (ELISA Alpco Cat no. 80-INSRTH-E10). Each condition is tested in triplicate. The 3.5 mM glucose, the 10^−7M GLP-1 and the Forskoline 10^−7/IBMX 10^−5M mixtures are used as positive controls of the test. A compound stimulates the secretion of insulin if this factor is greater than or equal to 130% of the control for a given glucose dose.

[1] = tested on: hepatocytes isolated from Wistar rat liver; experiment: Test of inhibition of hepatic production of glucose (isolated hepatocytes, 3 h or 20 h incubation); assay type: cell-based; details: for activity at 50 µM / activity at 100 µM: Rattus norvegicus, Hepatocyte, hepatic glucose production, rat hepatocytes; for activity at 50 µM: compound at 50 μM, read-out: HGP % of ctrl @ 50 μM; for activity at 100 µM: compound at 100 μM, read-out: HGP % of ctrl @ 100 μM
Protocol: The hepatocytes are isolated from Wistar rat liver having fasted for 24 h after perfusion of collagenase in the portal vein. The freshly isolated hepatocytes are sown in 6-well plates coated with collagen and containing an adhesion medium (Williams Medium). After adhesion, the medium is replaced with RPMI 1640 medium without any glucose, containing hydrocortisone (7.10^−5M) for a duration from 16 to 18 h. The next day, the glucose hepatic production test is conducted in a Krebs medium for 3 h. The basal conditions are cells incubated with only Krebs, the stimulated conditions are the cells placed in Krebs+lactate+pyruvate, the produced conditions are the cells exposed to chemical compounds in a Krebs/lactate/pyruvate medium. In the case when the compounds are dissolved in DMSO, all the conditions of the tests are met in the presence of a final concentration of 0.1% DMSO. The positive control of the test is the mercaptopicolinate known for its inhibitory action on hepatic production of glucose via the phosphoenolpyruvate carboxykinase. For short term treatments, the compounds are incubated for 3 h. For long term treatments, the compounds are incubated for 20 h at the moment when the hepatocytes are cultivated in RPMI and then added during the hepatic production test for 3 h. At the end of the 3 hours of incubation, the supernatant is recovered for measurement of glucose with a colorimetric method using glucose oxidase. The cells are lysed with a 0.1% NaOH aqueous solution in order to measure the amount of protein with the Lowry method. The results are expressed in mmols of glucose per mg of protein.

| SMILES | activity at 10 µM (INS-1 cells) | activity at 50 µM (INS-1 cells) | other results |
| --- | --- | --- | --- |
| CCOC(=O)Cc1cc(C(=O)c2cccc(OC)c2)sc1-c1ccc(OC)cc1 [compound 30, ethyl 2-(5-(3-methoxybenzoyl)-2-(4-methoxyphenyl)thiophen-3-yl)acetate] | 157% |  |  |
| CCOC(=O)C(C)c1cc(C(=O)c2ccc(OC)cc2)sc1-c1ccc(Cl)cc1 (centres unmarked) [compound 123, ethyl 2-(2-(4-chlorophenyl)-5-(4-methoxybenzoyl)thiophen-3-yl)propanoate] | 168% | 166% | activity at 50 µM ([1]; 3 h, 3 h incubation): 101%; activity at 100 µM ([1]; 3 h, 3 h incubation): 63% |
| N#Cc1ccc(-c2sc(C(=O)c3ccco3)cc2CC(=O)O)cc1 [compound 140, 2-(2-(4-cyanophenyl)-5-(furan-2-carbonyl)thiophen-3-yl)acetic acid] | 123% | 188% |  |
| CCOC(=O)Cc1cc(C(=O)c2ccoc2)sc1-c1ccc(OC)cc1 [compound 28, ethyl 2-(5-(furan-3-carbonyl)-2-(4-methoxyphenyl)thiophen-3-yl)acetate] | 136% | 138% |  |
| O=C(O)Cc1cc(C(=O)c2ccco2)sc1-c1cccc(F)c1F [compound 136, 2-(2-(2,3-difluorophenyl)-5-(furan-2-carbonyl)thiophen-3-yl) acetic acid] | 120% | 158% | activity at 50 µM ([1]; 20 h, 20 h incubation): 64%; activity at 100 µM ([1]; 20 h, 20 h incubation): 43% |
| CCOC(=O)Cc1cc(C(=O)c2ccc(Cl)cc2OC)sc1-c1ccc(Cl)cc1 [compound 155, ethyl 2-[5-(4-chloro-2-methoxy-benzoyl)-2-(4-chlorophenyl)-3-thienyl]acetate] |  | 143% | activity at 50 µM ([1]; 3 h, 3 h incubation): 65%; activity at 100 µM ([1]; 3 h, 3 h incubation): 54% |
| CCOC(=O)Cc1cc(C(=O)c2cscn2)sc1-c1ccc(OC)cc1 [compound 33, ethyl 2-(2-(4-methoxyphenyl)-5-(thiazole-4-carbonyl)thiophen-3-yl)acetate] | 199% | 280% |  |
| COc1ccc(-c2sc(C(=O)c3cccc(OC)c3)cc2CC(=O)OCC2O[C@H]3OC(C)(C)O[C@H]3[C@H]3OC(C)(C)O[C@@H]23)cc1 (stereo partly drawn) [compound 85, ((3aS,5aS,8aS,8bS)-2,2,7,7-tetramethyltetrahydro-3aH-bis([1,3]dioxolo)[4,5-b:4′,5′-d]pyran-5-yl)methyl 2-(5-(3-methoxy-benzoyl)-2-(4-methoxy-phenyl)thiophen-3-yl)acetate] | 146% |  |  |
| CCOC(=O)Cc1cc(C(=O)CCCCl)sc1-c1ccc(OC)cc1 [compound 37, ethyl 2-(5-(4-chlorobutanoyl)-2-(4-methoxyphenyl)thiophen-3-yl)acetate] | 157% | 107% |  |
| COCC(C(=O)OC(C)C)c1cc(C(=O)c2ccc(OC)cc2)sc1-c1ccc(Cl)cc1 (centres unmarked) [compound 125] | 154% | 126% |  |
| CCOC(=O)Cc1cc(C(=O)c2ccco2)sc1-c1ccc(Cl)c(Cl)c1 [compound 158, ethyl 2-[2-(3,4-dichlorophenyl)-5-(furan-2-carbonyl)-3-thienyl]acetate] | 132% | 201% | inhibition of hepatic production of glucose ([1]; 3 h incubation, at the dose of 50 μM): strongest inhibitions; activity at 50 µM ([1]; 3 h, 3 h incubation): 59% |
| CCOC(=O)Cc1cc(C(=O)c2ccccc2)sc1-c1ccc(Cl)cc1 [compound 15, ethyl 2-(5-benzoyl-2-(4-chloro-phenyl)thiophen-3-yl)acetate] | 150% | 160% | activity at 50 µM ([1]; 20 h, 20 h incubation): 63%; activity at 100 µM ([1]; 20 h, 20 h incubation): 32% |
| CCOC(=O)Cc1cc(C(=O)c2ccco2)sc1-c1ccc(C#N)cc1 [compound 139, ethyl 2-(2-(4-cyanophenyl)-5-(furan-2-carbonyl)thiophen-3-yl)acetate] | 183% | 247% |  |
| CCOC(=O)Cc1cc(C(=O)N2CCOCC2)sc1-c1ccc(Cl)cc1 [compound 114, ethyl 2-(2-(4-chlorophenyl)-5-(morpholine-4-carbonyl)thiophen-3-yl)acetate] | 150% |  |  |
| CN(C)CCNC(=O)Cc1cc(C(=O)c2ccco2)sc1-c1ccc(Cl)cc1 [compound 95, 2-(2-(4-chlorophenyl)-5-(furan-2-carbonyl)thiophen-3-yl)-N-(2-(dimethylamino)ethyl)acetamide] | 144% | 147% |  |
| CCOC(=O)Cc1cc(C(=O)c2ccccc2)sc1-c1ccc(OC)cc1 [compound 35, ethyl 2-(5-benzoyl-2-(4-methoxy-phenyl)thiophen-3-yl)acetate] | 128% | 148% | activity at 50 µM ([1]; 20 h, 20 h incubation): 100%; activity at 100 µM ([1]; 20 h, 20 h incubation): 70% |
| CCOC(=O)Cc1cc(C(=O)c2ccc(Cl)o2)sc1-c1ccc(Cl)cc1 [compound 176, ethyl 2-[5-(5-chlorofuran-2-carbonyl)-2-(4-chlorophenyl)-3-thienyl]acetate] | 144% | 246% | activity at 50 µM ([1]; 3 h, 3 h incubation): 76%; activity at 100 µM ([1]; 3 h, 3 h incubation): 36% |
| N#CCc1cc(C(=O)c2ccco2)sc1-c1ccc(F)cc1 [compound 145, 2-(2-(4-fluorophenyl)-5-(furan-2-carbonyl)thiophen-3-yl)acetonitrile] | 125% | 145% |  |
| COc1ccc(C(=O)c2cc(CC(=O)NCCN(C)C)c(-c3ccc(Cl)cc3)s2)cc1 [compound 89, 2-(2-(4-chlorophenyl)-5-(4-methoxybenzoyl)thiophen-3-yl)-N-(2-(dimethylamino)ethyl)acetamide] | 171% |  |  |
| COc1ccc(C(=O)c2cc(CC(=O)NCCO)c(-c3ccc(Cl)cc3)s2)cc1 [compound 96, 2-(2-(4-chlorophenyl)-5-(4-methoxybenzoyl)thiophen-3-yl)-N-(2-hydroxyethyl)acetamide] | 177% |  |  |
| CCOC(=O)Cc1cc(C(=O)c2ccco2)sc1-c1ccc(OC)cc1 [compound 22, ethyl 2-(5-(furan-2-carbonyl)-2-(4-methoxyphenyl)thiophen-3-yl)acetate] | 152% | 207% |  |
| CN(C)CCNC(=O)Cc1cc(C(=O)c2ccco2)sc1-c1cccc(C#N)c1 [compound 142, 2-(2-(3-cyanophenyl)-5-(furan-2-carbonyl)thiophen-3-yl)-N-(2-(dimethylamino)ethyl)acetamide] | 117% | 175% |  |
| CC(C)OC(=O)Cc1cc(C(=O)c2ccco2)sc1-c1ccc(Cl)c(Cl)c1 [compound 39, isopropyl 2-(2-(3,4-dichlorophenyl)-5-(furan-2-carbonyl)thiophen-3-yl)acetate] | 143% | 389% |  |
| O=C(c1ccco1)c1cc(CC(=O)N2CCOCC2)c(-c2ccc(Cl)cc2)s1 [compound 91, 2-(2-(4-chlorophenyl)-5-(furan-2-carbonyl)thiophen-3-yl)-1-morpholino ethanone] | 184% | 152% |  |
| COc1ccc(C(=O)c2cc(CC(=O)N3CCN(C)CC3)c(-c3ccc(Cl)cc3)s2)cc1 [compound 93, 2-(2-(4-chlorophenyl)-5-(4-methoxybenzoyl)thiophen-3-yl)-1-(4-methylpiperazin-1-yl)ethanone] | 149% |  |  |
| C=C(C(=O)OCC)c1cc(C(=O)c2ccc(OC)cc2)sc1-c1ccc(Cl)cc1 [compound 187, ethyl 2-(2-(4-chlorophenyl)-5-(4-methoxybenzoyl)thiophen-3-yl)acrylate] | 152% | 120% |  |
